tested on: Phytophthora cactorum; experiment: Antifungal activity against Phytophthora cactorum assessed as inhibition of mycelial growth at 200 ppm at 21 +/- 1 degC measured after 5 days; type: functional; conditions: 120 h, read-out: GI

Row | SMILES | inhibition of growth at 200 ppm [%]
1 | Cc1cc(NC(=S)c2ccc(O)cc2O)ccc1N1C(=O)c2ccc(Cl)cc2C1=O | 0
2 | CCN(C(=S)c1ccc(O)cc1O)c1cccc2ccccc12 | 21
3 | Oc1ccc(C(=S)N(c2ccccc2)c2nnns2)c(O)c1 | 81
4 | Oc1ccc(C(=S)N(Cc2ccccc2)c2ccccn2)c(O)c1 | 21
5 | COc1ccc(NC(=S)c2ccc(O)cc2O)cc1O | 21
6 | C=C(C)c1ccccc1NC(=S)c1ccc(O)cc1O | 81
7 | O=[N+]([O-])c1cc(NC(=S)c2ccc(O)cc2O)ccc1F | 81
8 | Oc1ccc(C(=S)Nc2cc(C(F)(F)F)cc(C(F)(F)F)c2)c(O)c1 | 81

tested on: not listed separately; experiment: Lipophilicity, log K of the compound in water; type: physicochemical; conditions: buffer

Row | SMILES | logKw
9 | Cc1cc(NC(=S)c2ccc(O)cc2O)ccc1N1C(=O)c2ccc(Cl)cc2C1=O | 3.63
10 | CCN(C(=S)c1ccc(O)cc1O)c1cccc2ccccc12 | 5.09
11 | Oc1ccc(C(=S)N(c2ccccc2)c2nnns2)c(O)c1 | 3.3
12 | Oc1ccc(C(=S)N(Cc2ccccc2)c2ccccn2)c(O)c1 | 3.96
13 | COc1ccc(NC(=S)c2ccc(O)cc2O)cc1O | 2.52
14 | C=C(C)c1ccccc1NC(=S)c1ccc(O)cc1O | 4.55
15 | O=[N+]([O-])c1cc(NC(=S)c2ccc(O)cc2O)ccc1F | 3.96
16 | Oc1ccc(C(=S)Nc2cc(C(F)(F)F)cc(C(F)(F)F)c2)c(O)c1 | 6.06

tested on: Rhizoctonia solani; experiment: Antifungal activity against Rhizoctonia solani assessed as inhibition of mycelial growth at 200 ppm at 21 +/- 1 degC measured after 4 days; type: functional; conditions: 96 h, read-out: GI

Row | SMILES | inhibition of growth at 200 ppm [%]
17 | Cc1cc(NC(=S)c2ccc(O)cc2O)ccc1N1C(=O)c2ccc(Cl)cc2C1=O | 0
18 | CCN(C(=S)c1ccc(O)cc1O)c1cccc2ccccc12 | 0
19 | Oc1ccc(C(=S)N(c2ccccc2)c2nnns2)c(O)c1 | 81
20 | Oc1ccc(C(=S)N(Cc2ccccc2)c2ccccn2)c(O)c1 | 21
21 | COc1ccc(NC(=S)c2ccc(O)cc2O)cc1O | 51
22 | C=C(C)c1ccccc1NC(=S)c1ccc(O)cc1O | 81
23 | O=[N+]([O-])c1cc(NC(=S)c2ccc(O)cc2O)ccc1F | 81
24 | Oc1ccc(C(=S)Nc2cc(C(F)(F)F)cc(C(F)(F)F)c2)c(O)c1 | 81

tested on: Alternaria alternata; experiment: Antifungal activity against Alternaria alternata assessed as inhibition of mycelial growth at 20 ppm at 21 +/- 1 degC measured after 5 days; type: functional; conditions: 120 h, read-out: GI

Row | SMILES | inhibition of growth at 20 ppm [%]
25 | Cc1cc(NC(=S)c2ccc(O)cc2O)ccc1N1C(=O)c2ccc(Cl)cc2C1=O | 0
26 | CCN(C(=S)c1ccc(O)cc1O)c1cccc2ccccc12 | 0
27 | Oc1ccc(C(=S)N(c2ccccc2)c2nnns2)c(O)c1 | 51
28 | Oc1ccc(C(=S)N(Cc2ccccc2)c2ccccn2)c(O)c1 | 0
29 | COc1ccc(NC(=S)c2ccc(O)cc2O)cc1O | 0
30 | C=C(C)c1ccccc1NC(=S)c1ccc(O)cc1O | 51
31 | O=[N+]([O-])c1cc(NC(=S)c2ccc(O)cc2O)ccc1F | 21
32 | Oc1ccc(C(=S)Nc2cc(C(F)(F)F)cc(C(F)(F)F)c2)c(O)c1 | 51

tested on: Botrytis cinerea; experiment: Antifungal activity against Botryotinia fuckeliana assessed as inhibition of mycelial growth at 20 ppm at 21 +/- 1 degC measured after 3 days; type: functional; conditions: 72 h, read-out: GI

Row | SMILES | inhibition of growth at 20 ppm [%]
33 | Cc1cc(NC(=S)c2ccc(O)cc2O)ccc1N1C(=O)c2ccc(Cl)cc2C1=O | 0
34 | CCN(C(=S)c1ccc(O)cc1O)c1cccc2ccccc12 | 0
35 | Oc1ccc(C(=S)N(c2ccccc2)c2nnns2)c(O)c1 | 51
36 | Oc1ccc(C(=S)N(Cc2ccccc2)c2ccccn2)c(O)c1 | 0
37 | COc1ccc(NC(=S)c2ccc(O)cc2O)cc1O | 0
38 | C=C(C)c1ccccc1NC(=S)c1ccc(O)cc1O | 51
39 | O=[N+]([O-])c1cc(NC(=S)c2ccc(O)cc2O)ccc1F | 21
40 | Oc1ccc(C(=S)Nc2cc(C(F)(F)F)cc(C(F)(F)F)c2)c(O)c1 | 51

tested on: Phytophthora cactorum; experiment: Antifungal activity against Phytophthora cactorum assessed as inhibition of mycelial growth at 20 ppm at 21 +/- 1 degC measured after 5 days; type: functional; conditions: 120 h, read-out: GI

Row | SMILES | inhibition of growth at 20 ppm [%]
41 | Cc1cc(NC(=S)c2ccc(O)cc2O)ccc1N1C(=O)c2ccc(Cl)cc2C1=O | 0
42 | CCN(C(=S)c1ccc(O)cc1O)c1cccc2ccccc12 | 0
43 | Oc1ccc(C(=S)N(c2ccccc2)c2nnns2)c(O)c1 | 21
44 | Oc1ccc(C(=S)N(Cc2ccccc2)c2ccccn2)c(O)c1 | 0
45 | COc1ccc(NC(=S)c2ccc(O)cc2O)cc1O | 0
46 | C=C(C)c1ccccc1NC(=S)c1ccc(O)cc1O | 51
47 | O=[N+]([O-])c1cc(NC(=S)c2ccc(O)cc2O)ccc1F | 21
48 | Oc1ccc(C(=S)Nc2cc(C(F)(F)F)cc(C(F)(F)F)c2)c(O)c1 | 51

tested on: not listed separately; experiment: Octanol-water partition coefficient, log P of the compound; type: physicochemical; conditions: not given

Row | SMILES | logP
49 | Cc1cc(NC(=S)c2ccc(O)cc2O)ccc1N1C(=O)c2ccc(Cl)cc2C1=O | 4.57
50 | CCN(C(=S)c1ccc(O)cc1O)c1cccc2ccccc12 | 5.03
51 | Oc1ccc(C(=S)N(Cc2ccccc2)c2ccccn2)c(O)c1 | 4.56
52 | COc1ccc(NC(=S)c2ccc(O)cc2O)cc1O | 2.39
53 | C=C(C)c1ccccc1NC(=S)c1ccc(O)cc1O | 4.27
54 | O=[N+]([O-])c1cc(NC(=S)c2ccc(O)cc2O)ccc1F | 3.43
55 | Oc1ccc(C(=S)Nc2cc(C(F)(F)F)cc(C(F)(F)F)c2)c(O)c1 | 4.75

tested on: Alternaria alternata; experiment: Antifungal activity against Alternaria alternata assessed as inhibition of mycelial growth at 200 ppm at 21 +/- 1 degC measured after 5 days; type: functional; conditions: 120 h, read-out: GI

Row | SMILES | inhibition of growth at 200 ppm [%]
56 | Cc1cc(NC(=S)c2ccc(O)cc2O)ccc1N1C(=O)c2ccc(Cl)cc2C1=O | 21
57 | CCN(C(=S)c1ccc(O)cc1O)c1cccc2ccccc12 | 21
58 | Oc1ccc(C(=S)N(c2ccccc2)c2nnns2)c(O)c1 | 81
59 | Oc1ccc(C(=S)N(Cc2ccccc2)c2ccccn2)c(O)c1 | 21
60 | COc1ccc(NC(=S)c2ccc(O)cc2O)cc1O | 51
61 | C=C(C)c1ccccc1NC(=S)c1ccc(O)cc1O | 81
62 | O=[N+]([O-])c1cc(NC(=S)c2ccc(O)cc2O)ccc1F | 81
63 | Oc1ccc(C(=S)Nc2cc(C(F)(F)F)cc(C(F)(F)F)c2)c(O)c1 | 81

tested on: Fusarium culmorum; experiment: Antifungal activity against Fusarium culmorum assessed as inhibition of mycelial growth at 20 ppm at 21 +/- 1 degC measured after 5 days; type: functional; conditions: 120 h, read-out: GI

Row | SMILES | inhibition of growth at 20 ppm [%]
64 | Cc1cc(NC(=S)c2ccc(O)cc2O)ccc1N1C(=O)c2ccc(Cl)cc2C1=O | 0
65 | CCN(C(=S)c1ccc(O)cc1O)c1cccc2ccccc12 | 0
66 | Oc1ccc(C(=S)N(c2ccccc2)c2nnns2)c(O)c1 | 21
67 | Oc1ccc(C(=S)N(Cc2ccccc2)c2ccccn2)c(O)c1 | 0
68 | COc1ccc(NC(=S)c2ccc(O)cc2O)cc1O | 0
69 | C=C(C)c1ccccc1NC(=S)c1ccc(O)cc1O | 51
70 | O=[N+]([O-])c1cc(NC(=S)c2ccc(O)cc2O)ccc1F | 21
71 | Oc1ccc(C(=S)Nc2cc(C(F)(F)F)cc(C(F)(F)F)c2)c(O)c1 | 51

tested on: Fusarium culmorum; experiment: Antifungal activity against Fusarium culmorum assessed as inhibition of mycelial growth at 200 ppm at 21 +/- 1 degC measured after 5 days; type: functional; conditions: 120 h, read-out: GI

Row | SMILES | inhibition of growth at 200 ppm [%]
72 | Cc1cc(NC(=S)c2ccc(O)cc2O)ccc1N1C(=O)c2ccc(Cl)cc2C1=O | 21
73 | CCN(C(=S)c1ccc(O)cc1O)c1cccc2ccccc12 | 21
74 | Oc1ccc(C(=S)N(c2ccccc2)c2nnns2)c(O)c1 | 81
75 | Oc1ccc(C(=S)N(Cc2ccccc2)c2ccccn2)c(O)c1 | 21
76 | COc1ccc(NC(=S)c2ccc(O)cc2O)cc1O | 51
77 | C=C(C)c1ccccc1NC(=S)c1ccc(O)cc1O | 81
78 | O=[N+]([O-])c1cc(NC(=S)c2ccc(O)cc2O)ccc1F | 81
79 | Oc1ccc(C(=S)Nc2cc(C(F)(F)F)cc(C(F)(F)F)c2)c(O)c1 | 81

tested on: Rhizoctonia solani; experiment: Antifungal activity against Rhizoctonia solani assessed as inhibition of mycelial growth at 20 ppm at 21 +/- 1 degC measured after 4 days; type: functional; conditions: 96 h, read-out: GI

Row | SMILES | inhibition of growth at 20 ppm [%]
80 | Cc1cc(NC(=S)c2ccc(O)cc2O)ccc1N1C(=O)c2ccc(Cl)cc2C1=O | 0
81 | CCN(C(=S)c1ccc(O)cc1O)c1cccc2ccccc12 | 0
82 | Oc1ccc(C(=S)N(c2ccccc2)c2nnns2)c(O)c1 | 21
83 | Oc1ccc(C(=S)N(Cc2ccccc2)c2ccccn2)c(O)c1 | 0
84 | COc1ccc(NC(=S)c2ccc(O)cc2O)cc1O | 0
85 | C=C(C)c1ccccc1NC(=S)c1ccc(O)cc1O | 51
86 | O=[N+]([O-])c1cc(NC(=S)c2ccc(O)cc2O)ccc1F | 51
87 | Oc1ccc(C(=S)Nc2cc(C(F)(F)F)cc(C(F)(F)F)c2)c(O)c1 | 21

tested on: Botrytis cinerea; experiment: Antifungal activity against Botryotinia fuckeliana assessed as inhibition of mycelial growth at 200 ppm at 21 +/- 1 degC measured after 3 days; type: functional; conditions: 72 h, read-out: GI

Row | SMILES | inhibition of growth at 200 ppm [%]
88 | Cc1cc(NC(=S)c2ccc(O)cc2O)ccc1N1C(=O)c2ccc(Cl)cc2C1=O | 0
89 | CCN(C(=S)c1ccc(O)cc1O)c1cccc2ccccc12 | 0
90 | Oc1ccc(C(=S)N(c2ccccc2)c2nnns2)c(O)c1 | 81
91 | Oc1ccc(C(=S)N(Cc2ccccc2)c2ccccn2)c(O)c1 | 51
92 | COc1ccc(NC(=S)c2ccc(O)cc2O)cc1O | 51
93 | C=C(C)c1ccccc1NC(=S)c1ccc(O)cc1O | 81
94 | O=[N+]([O-])c1cc(NC(=S)c2ccc(O)cc2O)ccc1F | 81
95 | Oc1ccc(C(=S)Nc2cc(C(F)(F)F)cc(C(F)(F)F)c2)c(O)c1 | 81
